According to publication PMC11373624, “Development and preclinical characterization of a novel radiotheranostic EphA2-targeting bicyclic peptide” (Theranostics, 2024):
Numbered stars: 1 amine (or outer) side, 2 acyl side, 3 side chain; on linkers, the order of the positions; unused ones are H or OH. Bridge positions count the residues as written; N and C are the ends. Square brackets hold non-standard residues; d marks the D form. Peptide text beside a SMILES is read from it. * marks the point of attachment. DOTA = O=C(O)CN1CCN(CC(=O)O)CCN(CC(=O)*)CCN(CC(=O)O)CC1; TATA = O=C(CC[*:1])N1CN(C(=O)CC[*:2])CN(C(=O)CC[*:3])C1; Hyp = O=C(O)[C@@H]1C[C@@H](O)CN1; hArg = N=C(N)NCCCC[C@H](N)C(=O)O; Cba = N[C@@H](CC1CCC1)C(=O)O; βAla = NCCC(=O)O; Sar = CNCC(=O)O

Key:
Human EphA3 = biological target: T1, Human EphA3 (Homo sapiens, UniProt P29320); experiment: SPR homologue panel, EphA3; conditions: human EphA3, n=1; read-out: KD, no binding up to
T1 construct: purchased R&D Systems 644-A3
T1 sequence (P29320 with tags, fused parts or gaps limits assumed): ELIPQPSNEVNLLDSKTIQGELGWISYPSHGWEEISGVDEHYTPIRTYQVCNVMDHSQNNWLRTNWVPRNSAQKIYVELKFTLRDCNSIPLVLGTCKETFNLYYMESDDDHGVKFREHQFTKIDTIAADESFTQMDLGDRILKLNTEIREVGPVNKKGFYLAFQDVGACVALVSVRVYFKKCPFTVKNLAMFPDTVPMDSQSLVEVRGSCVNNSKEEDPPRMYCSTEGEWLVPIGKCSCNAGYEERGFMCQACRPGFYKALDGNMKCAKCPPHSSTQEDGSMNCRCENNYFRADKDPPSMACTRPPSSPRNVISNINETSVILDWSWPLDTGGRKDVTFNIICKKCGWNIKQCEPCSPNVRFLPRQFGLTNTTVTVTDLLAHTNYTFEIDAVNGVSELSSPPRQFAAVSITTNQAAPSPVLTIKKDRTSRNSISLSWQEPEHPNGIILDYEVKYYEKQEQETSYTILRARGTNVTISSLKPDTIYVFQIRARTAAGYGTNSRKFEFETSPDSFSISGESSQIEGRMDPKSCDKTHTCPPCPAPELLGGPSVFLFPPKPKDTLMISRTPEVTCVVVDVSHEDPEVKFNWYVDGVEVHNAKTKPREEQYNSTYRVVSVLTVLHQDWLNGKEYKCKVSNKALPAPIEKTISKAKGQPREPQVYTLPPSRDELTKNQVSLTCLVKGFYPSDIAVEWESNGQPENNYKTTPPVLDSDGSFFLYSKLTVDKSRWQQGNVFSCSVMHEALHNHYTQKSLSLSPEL
Description: (§1) The commercial source details of the recombinant proteins used in SPR were as follows: Human proteins: EphA1 (15789-H02H, Sino Biological), EphA3 (644-A3, R&D Systems), EphA6 (5606-A6, R&D Systems), EphA7 (6756-A7, R&D Systems). Mouse proteins: Mouse EphA2 was purchased from R&D Systems (Product number 639-A2). Mouse EphA2-Fc was resuspended as per manufacturer's recommendations and material was passed through a SuperdexS200 column to remove aggregates.
(§2) SPR experiments were performed on a Biacore 8K+ (Cytiva Life Sciences, USA) instrument, with methods matched for both human and mouse EphA2 protein. Protein was captured on to a Cytiva NTA sensor chip (Cytiva Life Sciences), via the expressed His-tag; this was followed by primary amine coupling chemistry to covalently immobilize the protein to the chip at 25°C. Initially the surface was injected with 0.5 mM NiCl2 for 2 minutes, followed by activation of the carboxymethyl dextran surface for 7 minutes using an injection of a 1:1 ratio of 0.4 M 1-ethyl-3-(3-dimethylaminopropyl) carbodiimide hydrochloride (EDC)/0.1 M N-hydroxy succinimide (NHS) at a flow rate of 10 µL/min.
(§3) Peptide was prepared in PBS/0.05% Tween 20 with a final DMSO concentration of 0.5%. The top peptide concentration was 100 or 500 nM and 5 further 3-fold dilutions. […]

Human EphA6 = biological target: T2, Human EphA6 (Homo sapiens, UniProt Q9UF33); experiment: SPR homologue panel, EphA6; conditions: human EphA6, n=1; read-out: KD, no binding up to
T2 construct: purchased R&D Systems 5606-A6
T2 sequence (Q9UF33 23-1036): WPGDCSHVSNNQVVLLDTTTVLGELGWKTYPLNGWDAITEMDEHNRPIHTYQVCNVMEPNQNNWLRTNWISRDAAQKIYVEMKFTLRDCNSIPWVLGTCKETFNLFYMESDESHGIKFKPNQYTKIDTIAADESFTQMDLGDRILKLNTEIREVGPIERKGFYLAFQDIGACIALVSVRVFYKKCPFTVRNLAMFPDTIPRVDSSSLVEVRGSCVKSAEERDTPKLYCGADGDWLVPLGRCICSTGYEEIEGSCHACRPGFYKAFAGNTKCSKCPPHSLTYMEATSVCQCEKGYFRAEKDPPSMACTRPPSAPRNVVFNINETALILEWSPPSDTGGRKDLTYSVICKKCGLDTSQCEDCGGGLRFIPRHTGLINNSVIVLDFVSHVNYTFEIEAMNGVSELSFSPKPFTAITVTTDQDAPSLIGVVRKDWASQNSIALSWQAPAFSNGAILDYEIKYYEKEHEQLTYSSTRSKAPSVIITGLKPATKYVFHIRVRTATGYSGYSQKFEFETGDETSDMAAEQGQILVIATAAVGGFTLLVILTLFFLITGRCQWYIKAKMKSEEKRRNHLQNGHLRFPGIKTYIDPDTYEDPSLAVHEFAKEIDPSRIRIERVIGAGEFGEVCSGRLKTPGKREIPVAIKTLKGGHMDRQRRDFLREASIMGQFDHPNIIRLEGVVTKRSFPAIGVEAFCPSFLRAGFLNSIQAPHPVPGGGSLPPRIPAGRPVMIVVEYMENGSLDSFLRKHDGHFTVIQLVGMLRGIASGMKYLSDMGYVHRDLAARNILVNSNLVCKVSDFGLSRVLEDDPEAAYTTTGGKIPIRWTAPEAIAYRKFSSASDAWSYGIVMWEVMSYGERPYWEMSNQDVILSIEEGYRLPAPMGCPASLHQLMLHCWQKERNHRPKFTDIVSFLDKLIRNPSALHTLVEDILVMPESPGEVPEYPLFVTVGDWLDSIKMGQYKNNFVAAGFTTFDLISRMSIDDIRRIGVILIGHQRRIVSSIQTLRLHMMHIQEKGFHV
Description: as §1, §2, §3

Human EphA4 = Human EphA4 (Homo sapiens, UniProt P54764); experiment: SPR homologue panel, EphA4; conditions: human EphA4, n=1; read-out: KD, no binding up to
Human EphA4, sequence (P54764 20-986): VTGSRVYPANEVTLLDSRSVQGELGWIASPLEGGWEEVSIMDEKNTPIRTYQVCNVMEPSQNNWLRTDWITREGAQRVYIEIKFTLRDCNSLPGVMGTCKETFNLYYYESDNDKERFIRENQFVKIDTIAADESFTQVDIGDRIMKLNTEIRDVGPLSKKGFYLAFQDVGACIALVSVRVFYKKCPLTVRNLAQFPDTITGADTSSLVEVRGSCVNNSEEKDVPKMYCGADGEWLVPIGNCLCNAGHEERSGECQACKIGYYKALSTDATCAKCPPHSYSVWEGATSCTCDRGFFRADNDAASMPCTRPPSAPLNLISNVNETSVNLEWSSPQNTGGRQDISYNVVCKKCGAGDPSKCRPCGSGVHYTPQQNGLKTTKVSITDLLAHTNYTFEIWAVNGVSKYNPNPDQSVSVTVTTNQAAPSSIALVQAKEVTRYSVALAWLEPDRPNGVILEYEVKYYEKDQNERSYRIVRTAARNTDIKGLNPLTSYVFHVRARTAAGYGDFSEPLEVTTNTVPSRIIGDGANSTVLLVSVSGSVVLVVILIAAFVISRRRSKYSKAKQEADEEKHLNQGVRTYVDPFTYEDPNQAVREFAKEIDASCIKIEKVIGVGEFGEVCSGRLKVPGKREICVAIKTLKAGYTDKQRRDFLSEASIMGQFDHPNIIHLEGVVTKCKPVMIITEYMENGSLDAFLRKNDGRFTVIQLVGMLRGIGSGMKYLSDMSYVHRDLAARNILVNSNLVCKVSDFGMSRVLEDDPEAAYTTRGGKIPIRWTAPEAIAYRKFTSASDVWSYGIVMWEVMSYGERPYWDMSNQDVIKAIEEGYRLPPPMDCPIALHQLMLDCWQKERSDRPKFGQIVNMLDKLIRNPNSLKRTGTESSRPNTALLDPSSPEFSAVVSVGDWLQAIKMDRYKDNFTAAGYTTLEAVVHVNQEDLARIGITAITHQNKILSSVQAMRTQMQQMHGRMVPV

Human EphA1 = biological target: T3, Human EphA1 (Homo sapiens, UniProt P21709); experiment: SPR homologue panel, EphA1; conditions: human EphA1, n=1; read-out: KD, no binding up to
T3 construct: purchased Sino Biological 15789-H02H
T3 sequence (P21709 26-547 limits assumed): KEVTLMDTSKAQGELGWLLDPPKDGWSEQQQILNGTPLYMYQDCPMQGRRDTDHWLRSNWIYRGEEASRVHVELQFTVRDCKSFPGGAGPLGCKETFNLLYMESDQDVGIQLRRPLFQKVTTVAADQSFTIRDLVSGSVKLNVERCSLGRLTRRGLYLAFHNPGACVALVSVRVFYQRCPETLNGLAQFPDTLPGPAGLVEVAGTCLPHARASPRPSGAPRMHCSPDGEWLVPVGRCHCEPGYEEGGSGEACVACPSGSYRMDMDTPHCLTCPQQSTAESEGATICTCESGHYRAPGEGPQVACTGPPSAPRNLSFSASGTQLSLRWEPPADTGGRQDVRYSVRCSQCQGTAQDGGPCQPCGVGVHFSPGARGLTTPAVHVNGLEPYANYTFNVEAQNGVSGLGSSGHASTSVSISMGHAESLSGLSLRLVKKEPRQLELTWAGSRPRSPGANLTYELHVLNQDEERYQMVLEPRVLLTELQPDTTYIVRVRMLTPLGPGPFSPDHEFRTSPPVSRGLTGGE
Description: as §1, §2, §3

Mouse EphA2 = biological target: T4, Mouse EphA2 (Mus musculus, UniProt Q03145); experiment: SPR binding to mouse EphA2
T4 construct: Fc; purchased R&D Systems 639-A2
T4 sequence (Q03145 with tags, fused parts or gaps limits assumed): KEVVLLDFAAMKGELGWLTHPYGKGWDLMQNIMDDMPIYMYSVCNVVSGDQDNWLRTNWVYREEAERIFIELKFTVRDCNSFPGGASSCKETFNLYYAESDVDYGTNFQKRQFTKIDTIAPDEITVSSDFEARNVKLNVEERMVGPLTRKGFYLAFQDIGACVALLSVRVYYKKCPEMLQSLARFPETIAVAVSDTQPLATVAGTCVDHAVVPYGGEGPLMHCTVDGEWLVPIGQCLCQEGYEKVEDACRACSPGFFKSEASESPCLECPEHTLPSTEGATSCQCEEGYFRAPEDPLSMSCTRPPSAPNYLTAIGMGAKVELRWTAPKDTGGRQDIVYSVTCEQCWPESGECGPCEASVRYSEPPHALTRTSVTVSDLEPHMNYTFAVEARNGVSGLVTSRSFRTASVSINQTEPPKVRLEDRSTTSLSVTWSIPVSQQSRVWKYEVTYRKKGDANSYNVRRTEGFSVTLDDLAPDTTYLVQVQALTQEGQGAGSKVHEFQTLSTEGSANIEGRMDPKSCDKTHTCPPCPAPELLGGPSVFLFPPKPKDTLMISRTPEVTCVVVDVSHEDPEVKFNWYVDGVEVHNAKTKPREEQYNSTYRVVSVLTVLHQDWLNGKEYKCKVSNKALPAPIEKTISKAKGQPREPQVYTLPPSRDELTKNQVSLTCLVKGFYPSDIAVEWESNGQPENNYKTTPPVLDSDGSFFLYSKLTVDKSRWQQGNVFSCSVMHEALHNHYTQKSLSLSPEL
Description: as §1, §2
Human EphA2 protein was captured to the Ni-NTA surface to a level of 200-300 RU and Mouse EphA2 to 500-800 RU; the residual activated groups were then blocked with a 7 minute injection of 1 M ethanolamine (pH 8.5):HBS-N (1:1). […]

Human EphA5 = Human EphA5 (Homo sapiens, UniProt P54756); experiment: SPR homologue panel, EphA5; conditions: human EphA5, n=1; read-out: KD, no binding up to
Human EphA5, sequence (P54756 25-1037): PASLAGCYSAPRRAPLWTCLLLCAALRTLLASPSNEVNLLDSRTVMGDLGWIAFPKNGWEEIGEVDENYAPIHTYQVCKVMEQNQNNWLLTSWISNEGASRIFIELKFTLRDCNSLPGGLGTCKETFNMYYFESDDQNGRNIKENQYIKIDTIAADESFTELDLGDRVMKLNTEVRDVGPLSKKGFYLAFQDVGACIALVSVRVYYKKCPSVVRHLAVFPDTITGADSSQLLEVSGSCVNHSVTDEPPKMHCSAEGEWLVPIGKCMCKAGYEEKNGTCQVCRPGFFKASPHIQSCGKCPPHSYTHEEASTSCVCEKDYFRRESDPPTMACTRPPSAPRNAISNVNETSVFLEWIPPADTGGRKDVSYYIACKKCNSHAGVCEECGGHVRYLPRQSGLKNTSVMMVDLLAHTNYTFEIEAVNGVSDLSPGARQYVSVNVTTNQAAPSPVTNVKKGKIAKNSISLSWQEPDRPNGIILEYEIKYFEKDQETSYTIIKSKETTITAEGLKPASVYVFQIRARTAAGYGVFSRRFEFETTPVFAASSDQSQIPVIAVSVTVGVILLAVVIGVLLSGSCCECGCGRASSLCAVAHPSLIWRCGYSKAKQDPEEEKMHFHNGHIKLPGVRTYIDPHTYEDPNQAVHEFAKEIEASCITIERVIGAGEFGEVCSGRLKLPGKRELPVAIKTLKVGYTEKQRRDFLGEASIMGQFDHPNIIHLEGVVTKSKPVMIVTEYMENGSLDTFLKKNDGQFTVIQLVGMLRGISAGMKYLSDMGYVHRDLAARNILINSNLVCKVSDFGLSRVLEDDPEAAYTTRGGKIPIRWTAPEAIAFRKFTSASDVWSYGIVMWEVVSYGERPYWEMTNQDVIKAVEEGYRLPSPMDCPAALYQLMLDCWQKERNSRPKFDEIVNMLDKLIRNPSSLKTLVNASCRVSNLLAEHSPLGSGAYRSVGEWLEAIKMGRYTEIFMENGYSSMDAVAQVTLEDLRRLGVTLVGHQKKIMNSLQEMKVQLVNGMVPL

Kd (Human EphA3): > 5 µM | Kd (Human EphA6): > 5 µM | Kd (Human EphA4): > 5 µM | Kd (Human EphA1): > 5 µM | Kd (Mouse EphA2; mouse EphA2, 25°C): 0.00382 ± 0.00056 µM | kon (Mouse EphA2; mouse EphA2, n=2, read-out: ka): 419000 M⁻¹ s⁻¹ | Kd (Human EphA5): > 5 µM
Structure (SMILES): CC(C)C[C@@H]1NC(=O)[C@@H]2CSCCC(=O)N3CN(CN(C3)C(=O)CCSC[C@H](NC(=O)[C@H](CC(=O)O)NC(=O)[C@H](CCCCNC(=N)N)NC(=O)[C@H](C)NC(=O)CN(C)C(=O)CN(C)C(=O)CN(C)C(=O)CN(C)C(=O)CN(C)C(=O)CN(C)C(=O)CN(C)C(=O)CN(C)C(=O)CN(C)C(=O)CN(C)C(=O)CCNC(=O)CN3CCN(CC(=O)O)CCN(CC(=O)O)CCN(CC(=O)O)CC3)C(=O)N3C[C@H](O)C[C@H]3C(=O)N[C@@H](CC3CCC3)C(=O)N[C@@H](C(C)C)C(=O)N[C@@H](CC(N)=O)C(=O)N3CCC[C@H]3C(=O)N[C@@H](CC(C)C)C(=O)N2)C(=O)CCSC[C@@H](C(N)=O)NC(=O)[C@H](CCCCNC(=N)N)NC(=O)[C@H](Cc2c[nH]c3ccccc23)NC(=O)[C@@H](CC(=O)O)NC(=O)[C@@H]2CCCN2C(=O)[C@H](Cc2c[nH]cn2)NC1=O [BCY18469, [-DOTA]-[B-Ala]-[Sar10]-Ala-[HArg]-Asp-Cys-[HyP]-[Cba]-Val-Asn-Pro-Leu-Cys-Leu-His-Pro-[dAsp]-Trp-[HArg]-Cys-CONH2] ({DOTA-βAla}-[Sar][Sar][Sar][Sar][Sar][Sar][Sar][Sar][Sar][Sar]A[hArg]DC[Hyp][Cba]VNPLCLHP[dD]W[hArg]C-NH2; linker 14-21-28 via TATA)
